Laboratory results reported in PubChem BioAssay (NCI).
Where “and” joins values, the source holds several entries; their conditions need not be identical. Equal entries are not always repeated.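 Results reflect a 48-hour exposure of cells in 96-well plates to compound at five concentrations. GI50 marks 50% less growth. At the TGI there is no net growth.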

Columns and labels:
Experiment in all cases: DTP human tumour cell line panel, 48 h
[1] = test system: OVCAR-8 ovarian
[2] = test system: SF-268 CNS
[3] = test system: NCI-H522 lung
[4] = test system: A549 NSCLC
[5] = test system: M14 melanoma
[6] = test system: HOP-92 NSCLC
[7] = test system: OVCAR-3 ovarian
[8] = test system: CAKI-1 renal
[9] = test system: DU-145 prostate
[10] = test system: U251 CNS
[11] = test system: DLD-1 colon
[12] = test system: KM20L2 colon
[13] = test system: SNB-78 CNS
[14] = test system: DMS 273 small cell lung
[15] = test system: DMS 114 small cell lung

Row | Compound | TGI [1] [µM] | TGI [2] [µM] | TGI [3] | TGI [4] [µM] | TGI [5] [µM] | TGI [6] [µM] | TGI [7] [µM] | TGI [8] [µM] | TGI [9] [µM] | TGI [10] [µM] | TGI [11] [µM] | TGI [12] [µM] | TGI [13] [µM] | TGI [14] [µM] | TGI [15] [µM] | GI50 [3] [µM] | GI50 [6] [µM] | GI50 [7] [µM] | GI50 [8] [µM] | GI50 [10] [µM]
1 | Cc1cc(C)nc(NS(=O)(=O)c2ccc(NNC(=O)c3cccc4c(=O)c5ccccc5[nH]c34)cc2)n1 | > 100 | > 100 | > 100 µM | > 100 | > 100 | 73.8 | > 100 | > 100 | > 100 | > 100 |  |  |  |  |  |  |  |  |  | 
2 | COc1cccc2c1C(=O)c1c(O)c3c(c(O)c1C2=O)C[C@@](O)(C(=O)CO)C[C@@H]3OC1CC(N)C(OC)C(C)O1 (some centres undefined) | 1.21 | 1.97 | 0.45 µM | 18.7 | 0.996 | 0.631 | 10.6 |  | > 100 | 0.441 | 3.37 | 4.83 | 16.9 | 1.4 |  |  |  |  |  | 
3 | CCOC(=O)C1=C(N)Oc2ccc(Br)cc2C1C(C#N)C(=O)OCC (centres undefined) | 45.1 | 38.5 | 34.6 µM | 70.5 | > 100 | 37 | 39.7 | > 100 | > 100 | 33.8 |  |  |  |  |  |  |  |  |  | 
4 | CC(C)(C)[Si](C)(C)OC1/C(=C/C#N)C(n2ccc(=O)[nH]c2=O)OC1CO (centres undefined) | > 100 | > 100 | > 100 µM | > 100 | > 100 | > 100 | > 100 | > 100 | > 100 | > 100 |  |  |  |  |  |  |  |  |  | 
5 | O=S(=O)(O)c1ccc(N=Nc2ccc(N=Nc3c(O)ccc4ccccc34)cc2)cc1 | > 100 | > 100 | > 100 µM | > 100 | > 100 | > 100 | > 100 | > 100 | > 100 | > 100 |  |  |  |  |  |  |  |  |  | 
6 | COc1ccc(OC)c(C2Cc3cnc4nc(N)nc(N)c4c3C2)c1 (centres undefined) | 96.9 | > 100 | 64.3 µM | > 100 | > 100 | 53.8 | 41.6 | > 100 | 55.7 | 47.3 |  |  |  |  |  |  |  |  |  | 
7 | CCCCn1c(C)c2c(c1C)C(=O)N(CC(O)CN1CCc3ccccc3C1)C2=O (centres undefined) | > 100 | > 100 | > 100 µM | > 100 | > 100 | > 100 | > 100 | > 100 | > 100 | > 100 |  |  |  |  |  |  |  |  |  | 
8 | S=c1[nH]n2c(COc3cccc(OCc4nnc5sc(=S)[nH]n45)c3)nnc2s1 | > 100 | > 100 | > 100 µM | > 100 | > 100 | > 100 | > 100 | > 100 | > 100 | > 100 |  |  |  |  |  |  |  |  |  | 
9 | Cc1ccc(NC(=S)NNC(=O)c2cc(-c3ccccc3)nc3ccccc23)cc1 | 47.8 | 34.8 | 39 µM | 26.2 | 26.8 | 25.8 | 21.7 | 45.9 | 26.1 | 20.2 |  |  |  |  |  |  |  |  |  | 
10 | Cc1c(CNc2ccc(C(=O)NC(CC(=O)O)C(=O)O)cc2)ccc2nc(N)nc(N)c12 (centres undefined) | > 1000 | > 1000 | > 73.8 µM and 691 µM | > 1000 | > 1000 | > 1000 | > 1000 | > 1000 | > 1000 | > 1000 |  |  |  |  | > 66.7 | 0.57 | > 1000 | 34.6 | 48.6 | 0.226
11 | CC(/C=N\NC(=S)N1CCCCC1)=N/NC(=S)N1CCCCC1 | 16.1 | 14.6 | 5.68 µM | 18.5 | 5.51 | 7.48 | 5.12 | 10.7 | 4.58 | 13 |  |  |  |  |  |  |  |  |  | 
12 | C[C@@]12CCC3C1C=C1C(=O)c4cc(O)ccc4C(=O)[C@]1(O2)[C@@]3(C)C=O | 42.6 | 36.7 | 11.4 µM | 27.2 | 19.9 | 20.8 | 12 | 13.7 | 11.3 | 19 |  |  |  |  |  |  |  |  |  | 
13 | COc1cc(C2SCC(=O)N2c2ccc(Cl)c(Cl)c2)cc(OC)c1OC (centres undefined) | > 100 | > 100 | > 100 µM | > 100 | > 100 | > 100 | > 100 | > 100 | > 100 | > 100 |  |  |  |  |  |  |  |  |  | 
14 | CC(NNC(=O)CC(=O)N(C(=O)c1ccccc1)c1ccc(Cl)cc1)c1cc2ccccc2oc1=O (centres undefined) | > 10 | > 10 | > 10 µM | > 10 | > 10 | > 10 | > 10 | > 10 | > 10 | > 10 |  |  |  |  |  |  |  |  |  | 
15 | CC(C)(C)NC(=O)N1N=C(c2ccccc2)C1c1ccccc1 (centres undefined) | > 100 | > 100 | 35.5 µM | > 100 | > 100 | 65 | 50.3 | 59.1 | > 100 | > 100 |  |  |  |  |  |  |  |  |  | 
16 | O=C(O)c1cccnc1 | > 100 | > 100 | > 100 µM | > 100 | > 100 | > 100 | > 100 | > 100 | > 100 | > 100 |  |  |  |  |  |  |  |  |  | 
